Assay results taken from patent publication US20070161547A1, “Modulation of survivin expression” (priority 2003, published 2007).
Oligonucleotides are written 5' to 3', each unit as a sugar letter and its base; * is a phosphorothioate linkage, no mark a phosphodiester; rarer units and linkages stand in square brackets, end groups in braces. Plain capitals give the bases only. e = 2'-O-(2-methoxyethyl) (MOE); m = 2'-O-methyl; r = 2'-OH (RNA); {P} = phosphate

Key:
[1] = system: human survivin mRNA; experiment: Inhibition of human survivin mRNA by single-stranded asRNA in HUVEC, real-time quantitative PCR; type: cell-based; set-up: concentration or dose not given beside the values; settings: Table 7
Protocol: HUVEC were obtained from ATCC and routinely cultured in EBM (Clonetics Corp, Walkersille, Md.) supplemented with SingleQuots supplements. Cells were routinely passaged by trypsinizaiton and dilution when they reached 90% confluence were maintained for up to 15 passages. For cells grown in 96-well plates (10,000 cells/well), wells were washed once with 200 μL OPTI-MEM-1™ reduced-serum medium (Gibco BRL) and then treated with 130 μL of OPTI-MEM-1™ containing 12 μg/mL LIPOFECTIN™ (Gibco BRL) and the desired double-stranded compounds at a final concentration of 25 nM. After 5 hours of treatment, the medium was replaced with fresh medium. Cells were harvested 16 hours after dsRNA treatment, at which time RNA was isolated and target reduction measured by RT-PCR.
A series of single-stranded olgometric compounds (asRNA) was evaluated for their ability to inhibit human survivin in human umbilical vein endothelial cells (HUVEC). Culture methods used for HUVEC are found, for example, at www.atcc.org.
Data were obtained by real-time quantitative PCR as described in other examples herein.

[2] = system: human survivin mRNA; experiment: IC50 of dsRNA for survivin mRNA, dose response by quantitative RT-PCR ("D"); type: cell-based; settings: Table 16; cell line not given; read-out: IC50 (nM) mRNA, dsRNA to human survivin
Protocol: Representative parameters that can be studied include, for example, translation of survivin mRNAs or survivin protein synthesis; effect on surrogate markers; or any other parameter that is indicative of potential dsRNA therapeutic effectiveness that can be conveniently measured in vitro.
For western blot analysis, cells are plated in 10 cm tissue culture dishes (Falcon, #3003) at a density of 7.5×10^5 cells/dish. For RT-PCR analysis, 96-well plates (Corning Incorporated, #3596) are plated with 1×10^4 cells/well. Lipofectin (GIBCO/Invitrogen) transfection reagent is used at a concentration of 3 ul/ml OPTIMEM reduced serum medium (Gibco/Invitrogen)/100 nM siRNA duplex. Lipofectin reagent is incubated with OPTIMEM medium for 30 minutes prior to the addition of siRNA. The desired amount of siRNA is added and mixed. Further 1:1 dilutions are performed in OPTIMEM. Cells are washed twice with 1× phosphate buffered saline and then treated with the siRNA/Lipofectin mixture in OPTIMEM. After a 4 hr incubation period, OPTIMEM medium is replaced with complete growth medium. Cells are harvested after additional 16-20 hrs for Western blot or RT-PCR analysis.
Total RNA is isolated using RNeasy® 96 kit according to recommended protocol (Qiagen). Briefly, cells are washed with 200 ul PBS after removal of growth medium. Following washing, 100 μl buffer RLT is added, plate is shaken vigorously for about 20 seconds. To each well 100 μl 70% ethanol are added and mixed by pipetting up and down three times. Samples are then applied into the wells of the RNeasy 96 plate placed in the QIAvac top base of the QIAvac 96 manifold, which is attached to a vacuum source. Vacuum is applied for 30 seconds or until transfer is complete. To each well 80 μl of DNase I incubation mix (20 mM Tris-HCl, pH 8.4, 2 mM MgCl2, 50 mM KCl and 225 Units/ml DNase I from Invitrogen) is added and incubated at room temperature for 30 minutes. Buffer RW1 (1 ml/well) is added and the vacuum is applied for 30 seconds. Buffer RPE (1 ml/well) is added to each well and vacuum is applied for 30 seconds. Washing steps with buffer RW1 and RPE1 are repeated once more. The plate is then removed from the manifold and blotted dry on paper towels. The plate is placed back in the QIAvac manifold and the vacuum is applied for 10 minutes. To elute RNA 30 μl of RNase-free water is added directly onto the membrane of each well, incubated for 1 minutes and vacuum is applied for 30 seconds. In order to maximize the recovery of total RNA the elution step is repeated with additional 30 μl/well RNase-free water.
Quantitation of survivin and GAPDH mRNA levels is determined by real-time quantitative RT-PCR using the ABI PRISM® 7900 Sequence Detection System (Applied Biosystems). RT-PCR reactions are carried out by adding 15 ul of TaqMan One Step PCR Master Mix (Applied Biosystems, #4309169) reagents (containing 100 nM each of forward primer and reverse primer, and 200 nM probe) to 96-well plates with 10 μl total RNA. For human survivin, the forward PCR primer is: 5′[…]3′ (SEQ ID NO: 186), and the reverse primer is: 5′[…]3′ (SEQ ID NO: 187). The survivin TaqMan® probe used is 5′(FAM)[…]3′ (SEQ ID NO: 188) (Biosearch Technologies, Inc.). This primer-probe set, designed to SEQ ID No 14 was used for all experiments in Examples 15 to the end. For human GAPDH, TaqMan GAPDH Control Reagent Kit is used (Applied Biosystems, #402869). The percentage inhibition for each samples are calculated by comparing the survivin/GAPDH mRNA ratio for the sample to survivin/GAPDH mRNA ratio for the untreated control. The IC50 is derived from the non-linear regression analysis of the percentage inhibition data using GraphPad Prism software (GraphPad Software).
The constructs tested comprise the antisense strand in the 5′-3′ orientation, and the sense strand in the 5′ to 3′ orientation, In Table 15, “D” is dose response (mRNA levels) and “W” is Western blot. […]

347441 (antisense {P}-rA*rA*rG*rG*rA*rG*rU*rA*rU*rC*rU*rG*rC*rC*rA*rG*rA*rC*rG*rC) [compound 347441]
% INHIB, inhibition of human survivin mRNA levels by asRNA oligomeric compounds [1]: 66%

347442 (antisense {P}-rU*rA*rA*rU*rC*rA*rC*rA*rC*rA*rG*rC*rA*rG*rU*rG*rG*rC*rA*rA) [compound 347442]
% INHIB, inhibition of human survivin mRNA levels by asRNA oligomeric compounds [1]: 66%

347443 (antisense {P}-rG*rU*rG*rC*rC*rC*rC*rG*rC*rG*rG*rC*rU*rC*rA*rC*rU*rG*rG*rG) [compound 347443]
% INHIB, inhibition of human survivin mRNA levels by asRNA oligomeric compounds [1]: 54%

347444 (antisense {P}-rA*rA*rA*rG*rG*rA*rU*rU*rU*rA*rG*rG*rC*rC*rA*rC*rU*rG*rC*rC) [compound 347444]
% INHIB, inhibition of human survivin mRNA levels by asRNA oligomeric compounds [1]: 60%

347445 (antisense {P}-rA*rC*rA*rG*rC*rA*rU*rC*rG*rA*rG*rC*rC*rA*rA*rG*rU*rC*rA*rU) [compound 347445]
% INHIB, inhibition of human survivin mRNA levels by asRNA oligomeric compounds [1]: 53%

347446 (antisense {P}-rA*rC*rA*rG*rA*rC*rA*rC*rA*rC*rG*rG*rC*rC*rU*rG*rC*rA*rG*rC) [compound 347446]
% INHIB, inhibition of human survivin mRNA levels by asRNA oligomeric compounds [1]: 52%

347447 (antisense {P}-rG*rA*rA*rC*rG*rU*rG*rA*rC*rA*rG*rA*rU*rG*rU*rG*rA*rA*rG*rG) [compound 347447]
% INHIB, inhibition of human survivin mRNA levels by asRNA oligomeric compounds [1]: 47%

347448 (antisense {P}-rU*rC*rC*rA*rU*rC*rA*rU*rC*rU*rU*rA*rC*rG*rC*rC*rA*rG*rA*rC) [compound 347448]
% INHIB, inhibition of human survivin mRNA levels by asRNA oligomeric compounds [1]: 58%

347449 (antisense {P}-rG*rG*rC*rG*rA*rA*rU*rC*rA*rA*rA*rU*rC*rC*rA*rU*rC*rA*rU*rC) [compound 347449]
% INHIB, inhibition of human survivin mRNA levels by asRNA oligomeric compounds [1]: 51%

347450 (antisense {P}-rA*rU*rC*rC*rA*rC*rC*rC*rU*rG*rC*rA*rG*rC*rU*rC*rU*rA*rU*rG) [compound 347450]
% INHIB, inhibition of human survivin mRNA levels by asRNA oligomeric compounds [1]: 55%

347451 (antisense {P}-rG*rC*rC*rG*rA*rG*rA*rU*rG*rA*rC*rC*rU*rC*rC*rA*rG*rA*rG*rG) [compound 347451]
% INHIB, inhibition of human survivin mRNA levels by asRNA oligomeric compounds [1]: 59%

ISIS 346284_346287: blunt-ended siRNA 19 PO-PS/PS: antisense 346284, sense 346287 (antisense rUrU*rUrG*rArA*rArA*rUrG*rUrU*rGrA*rUrC*rUrC*rC; sense rG*rG*rA*rG*rA*rU*rC*rA*rA*rC*rA*rU*rU*rU*rU*rC*rA*rA*rA)
IC50 [2]: 3.24 nM

ISIS 352506_352514: blunt-ended siRNA duplex: antisense 352506, sense 352514 (antisense mUrUrUrGrAmAmArArUmGrUrUrGrArUrCmUmCmC; sense GGAGAUCAACAUUUUCAAA; sense: sugars from the 5' end rererererererererer, all phosphodiester, methylation of C and T or U not given here)
IC50 [2]: 0.12 nM

ISIS 352507_346287: dsRNA duplex: antisense 352507, sense 346287 (antisense mUrUmUrGmArAmArAmUrGmUrUmGrAmUrCmUrCmC; sense rG*rG*rA*rG*rA*rU*rC*rA*rA*rC*rA*rU*rU*rU*rU*rC*rA*rA*rA)
IC50 [2]: 0.8 nM

ISIS 352507_352511: blunt-ended siRNA duplex: antisense 352507, sense 352511 (antisense mUrUmUrGmArAmArAmUrGmUrUmGrAmUrCmUrCmC; sense GGAGAUCAACAUUUUCAAA; sense: all phosphodiester, sugars by position and methylation of C not given here; further chemistry not fully specified)
IC50 [2]: 0.24 nM

ISIS 352507_352512: blunt-ended siRNA duplex: antisense 352507, sense 352512 (antisense mUrUmUrGmArAmArAmUrGmUrUmGrAmUrCmUrCmC; sense mGmGmAmGmAmUmCmAmAmCmAmUmUmUmUmCmAmAmA)
IC50 [2]: 0.04 nM

ISIS 352507_352514: blunt-ended siRNA duplex: antisense 352507, sense 352514 (antisense mUrUmUrGmArAmArAmUrGmUrUmGrAmUrCmUrCmC; sense GGAGAUCAACAUUUUCAAA; sense: sugars from the 5' end rererererererererer, all phosphodiester, methylation of C and T or U not given here)
IC50 [2]: 0.21 nM

ISIS 353538_343868: dsRNA duplex: antisense 353538 (4'-thio), sense 343868 (unmodified) (antisense UUUGAAAAUGUUGAUCUCC; sense GGAGAUCAACAUUUUCAAA; antisense: all phosphodiester, sugars by position and methylation of C not given here; sense: RNA, phosphodiester; antisense has 4'-thioribose at some positions, positions stated inconsistently, further chemistry not fully specified)
IC50 [2]: 0.16 nM

ISIS 353539_343868: dsRNA duplex: antisense 353539, sense 343868 (antisense UUUGAAAAUGUUGAUCUCC; sense GGAGAUCAACAUUUUCAAA; chemical modifications, chemistry not fully specified)
IC50 [2]: 0.13 nM

ISIS 353540_343868: dsRNA duplex: antisense 353540, sense 343868 (antisense UUUGAAAAUGUUGAUCUCC; sense GGAGAUCAACAUUUUCAAA; chemical modifications, chemistry not fully specified)
IC50 [2]: 0.11 nM

ISIS 355710_343868: dsRNA duplex: antisense 355710, sense 343868 (antisense UUUGAAAAUGUUGAUCUCC; sense GGAGAUCAACAUUUUCAAA; chemical modifications, chemistry not fully specified)
IC50 [2]: 0.1 nM
